Experimental data taken from patent US9675649B2, “Disialyllacto-N-tetraose (DSLNT) or variants, isomers, analogs and derivatives thereof to prevent or inhibit bowel disease” (The Regents of the University of California, priority 2011, dated 2017).

Tested on: NEC model in neonatal rats
Experiment: Induction and evaluation of NEC in neonatal rats (formula feeding by oral gavage plus hypoxia)
Assay type: in vivo, Sprague-Dawley rats
Conditions: HMO fractions/subfractions added to formula at their respective concentrations in pooled HMO at 10 mg/ml, 96 h post-partum
Excerpt: Instead, we tested HMO in a well-established NEC model with neonatal Sprague-Dawley rats. We induced time-pregnant rats by oxytocin and randomized their pups into the different intervention groups. Some pups were left with the dam to serve as breast-fed controls; others were formula-fed by oral gavage twice daily. All pups were exposed to hypoxia thrice daily. On day-of-life 4, we sacrificed the pups and analyzed their intestines for macroscopic and microscopic signs of NEC. The ileum was prepared for H&E staining and evaluated blindly by three independent investigators to determine NEC pathology scores. […] We then isolated HMO from pooled human milk and added them to the formula.
Each HMO fraction and subfraction was tested at concentrations that were based on their relative abundance in pooled HMO at 10 mg/mL, the average concentration in mature human milk. Assuming an average molecular weight of 1,000 g/mol for pooled HMO, 10 mg/mL is equivalent to 10 mM.
Briefly, pregnant time-dated Sprague-Dawley rats were induced at term using Pitocin (1-2 U per animal). Immediately after birth, neonates were randomized into one of the different study groups. Animals in the dam-fed (DF) group remained with the dam. All other animals were separated from the dam, housed in a temperature- and humidity-controlled incubator and orally gavaged with a special rodent formula (0.2 ml) twice daily. […] A 0.5 cm section of the terminal ileum was prepared for H&E staining per standard protocols and scored blindly by three investigators based on morphological changes that included epithelial sloughing, villus oedema, infiltration of neutrophils, apoptosis of villus enterocytes, crypt hyperplasia and misaligned nuclei in the epithelium. […] Pathology scores were plotted for each animal and the mean calculated per group. […] Differences between the groups were calculated by one-way ANOVA with the Kruskal-Wallis test and Dunn's multiple comparison test. […]

Which ileum pathology score (listed as #2) does the source give for CC(=O)N[C@H]1[C@H](O[C@H]2[C@@H](O)[C@@H](CO)O[C@@H](O[C@@H]([C@H](O)[C@@H](O)C=O)[C@H](O)CO)[C@@H]2O)O[C@H](CO[C@]2(C(=O)O)C[C@H](O)[C@@H](NC(C)=O)[C@H]([C@H](O)[C@H](O)CO)O2)[C@@H](O)[C@@H]1O[C@@H]1O[C@H](CO)[C@H](O)[C@H](O[C@]2(C(=O)O)C[C@H](O)[C@@H](NC(C)=O)[C@H]([C@H](O)[C@H](O)CO)O2)[C@H]1O [DSLNT, Disialyllacto-N-tetraose] here?
The ileum pathology score was “significantly reduced NEC”.

And the ileum pathology score (listed as HMO 2)?
Its ileum pathology score is 0.64±0.41.

And the ileum pathology score (listed as HMO #2)?
The ileum pathology score was “significantly reduced NEC pathology scores”.
